Legend:
[1] = molecular target: T1, Sucrase-isomaltase, intestinal (Rattus norvegicus, UniProt P23739); assay: Inhibition of Wistar rat small intestine isomaltase after 30 mins
[2] = molecular target: T1, Sucrase-isomaltase, intestinal; assay: Inhibition of Wistar rat small intestine sucrase after 30 mins
Rattus norvegicus = organism: Rattus norvegicus; assay: Inhibition of Wistar rat small intestine cellobiase at 1000 uM after 30 mins
[3] = molecular target: Lactase/phlorizin hydrolase (Rattus norvegicus) (UniProt Q02401); assay: Inhibition of Wistar rat small intestine lactase at 1000 uM after 30 mins
Lactase/phlorizin hydrolase (Rattus norvegicus), sequence (Q02401 868-1928 limits assumed): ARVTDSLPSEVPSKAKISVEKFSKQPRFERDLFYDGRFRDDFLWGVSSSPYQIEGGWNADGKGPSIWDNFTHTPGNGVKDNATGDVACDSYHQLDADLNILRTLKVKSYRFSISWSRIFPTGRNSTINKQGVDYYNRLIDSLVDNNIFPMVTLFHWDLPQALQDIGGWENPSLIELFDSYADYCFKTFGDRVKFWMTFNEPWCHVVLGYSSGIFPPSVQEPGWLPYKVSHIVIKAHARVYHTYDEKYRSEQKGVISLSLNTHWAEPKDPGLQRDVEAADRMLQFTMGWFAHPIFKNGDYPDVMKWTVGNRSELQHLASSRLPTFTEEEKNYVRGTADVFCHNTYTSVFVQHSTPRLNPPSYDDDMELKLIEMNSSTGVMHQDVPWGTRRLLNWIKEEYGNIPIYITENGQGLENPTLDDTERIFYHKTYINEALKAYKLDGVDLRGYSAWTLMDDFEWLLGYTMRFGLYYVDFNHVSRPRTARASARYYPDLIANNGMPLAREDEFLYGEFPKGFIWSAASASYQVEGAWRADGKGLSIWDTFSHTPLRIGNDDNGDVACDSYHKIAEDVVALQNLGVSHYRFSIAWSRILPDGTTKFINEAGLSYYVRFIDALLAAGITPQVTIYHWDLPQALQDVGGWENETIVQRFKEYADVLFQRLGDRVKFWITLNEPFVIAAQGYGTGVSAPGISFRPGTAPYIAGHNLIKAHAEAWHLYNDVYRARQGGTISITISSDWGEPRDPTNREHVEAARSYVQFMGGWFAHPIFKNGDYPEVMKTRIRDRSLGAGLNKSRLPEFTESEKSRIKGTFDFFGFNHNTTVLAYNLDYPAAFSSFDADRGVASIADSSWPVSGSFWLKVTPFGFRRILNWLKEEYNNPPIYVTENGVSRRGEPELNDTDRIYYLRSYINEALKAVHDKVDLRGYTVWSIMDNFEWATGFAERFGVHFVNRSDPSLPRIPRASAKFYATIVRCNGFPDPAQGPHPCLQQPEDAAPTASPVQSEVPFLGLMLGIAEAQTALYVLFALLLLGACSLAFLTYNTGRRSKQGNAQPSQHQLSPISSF

[4] = molecular target: Sucrase-isomaltase, intestinal (Rattus norvegicus) (UniProt P23739); assay: Inhibition of Wistar rat small intestine isomaltase at 1000 uM after 30 mins
Sucrase-isomaltase, intestinal (Rattus norvegicus), sequence (P23739 1-1013 limits assumed): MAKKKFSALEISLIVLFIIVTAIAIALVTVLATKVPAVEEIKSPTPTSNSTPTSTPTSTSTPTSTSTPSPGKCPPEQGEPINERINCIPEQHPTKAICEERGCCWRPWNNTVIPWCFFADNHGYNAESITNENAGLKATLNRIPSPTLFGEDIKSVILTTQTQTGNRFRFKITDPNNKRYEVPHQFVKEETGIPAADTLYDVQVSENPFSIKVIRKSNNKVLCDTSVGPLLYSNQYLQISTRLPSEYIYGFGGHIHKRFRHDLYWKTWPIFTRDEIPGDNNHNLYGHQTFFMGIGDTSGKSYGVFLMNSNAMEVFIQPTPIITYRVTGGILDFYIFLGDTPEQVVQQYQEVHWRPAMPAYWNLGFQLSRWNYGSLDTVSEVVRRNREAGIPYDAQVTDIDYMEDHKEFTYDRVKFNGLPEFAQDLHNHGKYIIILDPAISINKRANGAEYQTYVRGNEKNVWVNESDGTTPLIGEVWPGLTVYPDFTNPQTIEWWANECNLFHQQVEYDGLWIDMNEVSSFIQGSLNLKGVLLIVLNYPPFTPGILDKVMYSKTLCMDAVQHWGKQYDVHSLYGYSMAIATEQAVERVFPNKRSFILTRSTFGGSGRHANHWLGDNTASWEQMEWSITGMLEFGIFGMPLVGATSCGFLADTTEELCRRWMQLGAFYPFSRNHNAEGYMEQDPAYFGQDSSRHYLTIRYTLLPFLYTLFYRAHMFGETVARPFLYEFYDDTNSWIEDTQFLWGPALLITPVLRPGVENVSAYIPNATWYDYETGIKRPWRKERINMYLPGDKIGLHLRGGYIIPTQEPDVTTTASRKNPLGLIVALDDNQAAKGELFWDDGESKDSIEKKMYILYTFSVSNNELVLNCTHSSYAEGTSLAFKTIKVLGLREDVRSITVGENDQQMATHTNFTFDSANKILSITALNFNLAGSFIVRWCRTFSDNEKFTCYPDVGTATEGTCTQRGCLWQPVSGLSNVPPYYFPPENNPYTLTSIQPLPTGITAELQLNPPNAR
Sucrase-isomaltase, intestinal (Rattus norvegicus), sequence (P23739 1014-1841 limits assumed): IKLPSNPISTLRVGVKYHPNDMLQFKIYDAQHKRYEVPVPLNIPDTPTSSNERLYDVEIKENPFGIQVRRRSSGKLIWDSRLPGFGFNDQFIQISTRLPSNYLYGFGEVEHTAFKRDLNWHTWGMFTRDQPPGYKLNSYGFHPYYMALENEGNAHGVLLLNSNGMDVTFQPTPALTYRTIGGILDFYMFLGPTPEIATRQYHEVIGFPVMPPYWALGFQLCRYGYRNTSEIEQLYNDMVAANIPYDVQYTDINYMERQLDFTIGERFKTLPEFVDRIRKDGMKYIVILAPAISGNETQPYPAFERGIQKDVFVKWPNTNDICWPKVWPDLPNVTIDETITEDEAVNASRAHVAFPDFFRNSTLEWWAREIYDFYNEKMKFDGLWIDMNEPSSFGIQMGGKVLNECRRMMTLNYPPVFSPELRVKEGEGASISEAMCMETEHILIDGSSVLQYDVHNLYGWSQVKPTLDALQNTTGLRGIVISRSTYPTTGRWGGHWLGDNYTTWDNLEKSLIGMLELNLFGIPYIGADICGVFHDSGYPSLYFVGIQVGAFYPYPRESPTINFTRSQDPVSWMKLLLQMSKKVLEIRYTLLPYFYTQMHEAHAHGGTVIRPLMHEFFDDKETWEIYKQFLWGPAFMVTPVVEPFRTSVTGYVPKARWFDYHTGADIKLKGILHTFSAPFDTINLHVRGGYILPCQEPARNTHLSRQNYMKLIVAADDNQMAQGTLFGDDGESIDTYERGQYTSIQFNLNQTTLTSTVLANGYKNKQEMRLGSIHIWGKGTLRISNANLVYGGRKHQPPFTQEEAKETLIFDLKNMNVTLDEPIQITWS

[5] = molecular target: Lysosomal alpha-glucosidase (Rattus norvegicus) (UniProt Q6P7A9); conditions: Wistar, 1000 uM
Lysosomal alpha-glucosidase (Rattus norvegicus), sequence (Q6P7A9 whole entry): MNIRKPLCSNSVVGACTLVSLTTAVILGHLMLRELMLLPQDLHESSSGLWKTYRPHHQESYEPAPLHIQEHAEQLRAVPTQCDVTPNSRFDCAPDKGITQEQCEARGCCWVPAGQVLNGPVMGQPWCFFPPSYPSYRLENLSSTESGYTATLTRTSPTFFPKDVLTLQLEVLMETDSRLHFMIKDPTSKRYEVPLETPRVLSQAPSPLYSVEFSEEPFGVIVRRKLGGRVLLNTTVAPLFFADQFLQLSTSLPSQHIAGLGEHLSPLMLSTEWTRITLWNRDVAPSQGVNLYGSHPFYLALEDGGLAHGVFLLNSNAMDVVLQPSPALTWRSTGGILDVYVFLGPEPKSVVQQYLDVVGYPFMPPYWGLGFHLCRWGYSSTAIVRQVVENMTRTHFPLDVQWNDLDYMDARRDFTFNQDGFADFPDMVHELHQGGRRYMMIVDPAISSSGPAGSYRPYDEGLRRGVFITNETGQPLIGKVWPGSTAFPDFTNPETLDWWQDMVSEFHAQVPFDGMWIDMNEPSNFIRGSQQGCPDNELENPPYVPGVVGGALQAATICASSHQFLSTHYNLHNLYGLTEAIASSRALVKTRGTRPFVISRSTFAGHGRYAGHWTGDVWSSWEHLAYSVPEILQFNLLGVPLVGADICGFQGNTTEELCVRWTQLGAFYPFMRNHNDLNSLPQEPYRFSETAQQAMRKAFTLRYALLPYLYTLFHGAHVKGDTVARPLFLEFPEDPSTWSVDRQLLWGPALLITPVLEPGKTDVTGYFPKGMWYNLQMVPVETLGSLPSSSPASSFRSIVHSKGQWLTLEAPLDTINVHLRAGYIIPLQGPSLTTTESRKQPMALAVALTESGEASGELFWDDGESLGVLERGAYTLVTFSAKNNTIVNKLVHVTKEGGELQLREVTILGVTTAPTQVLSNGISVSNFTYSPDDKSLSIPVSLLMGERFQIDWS
Description: Inhibition of Wistar rat small intestine maltase at 1000 uM after 30 mins

T1 sequence (P23739 1-1013 limits assumed): as the sequence (P23739 1-1013 limits assumed) above
T1 sequence (P23739 1014-1841 limits assumed): as the sequence (P23739 1014-1841 limits assumed) above

Row | SMILES | IC50 [1] | IC50 [2] | inhibition (Rattus norvegicus) | inhibition [3] | inhibition [4] | inhibition [5]
1 | CCCCCCCC[C@H]1N[C@@H](CO)[C@H](O)[C@H]1O | – | 590 µM | < 50% | < 50% | < 50% | –
2 | CC[C@@H]1N[C@@H](CO)[C@H](O)[C@H]1O | 11 µM | 0.68 µM | < 50% | < 50% | – | –
3 | CCCC[C@H]1N[C@@H](CO)[C@H](O)[C@H]1O | – | 392 µM | < 50% | < 50% | < 50% | < 50%
4 | CCCCCCC[C@@H]1N[C@@H](CO)[C@H](O)[C@H]1O | 16 µM | 0.24 µM | < 50% | < 50% | – | –
5 | CCCCCCCCCCC[C@@H]1N[C@@H](CO)[C@H](O)[C@H]1O | – | 13 µM | < 50% | < 50% | < 50% | –
6 | CCC[C@@H]1N[C@@H](CO)[C@H](O)[C@H]1O | 47 µM | 0.26 µM | < 50% | < 50% | – | –
7 | OCCN1C[C@H](O)[C@@H](O)[C@H](O)[C@H]1CO [MIGLITOL] | – | – | < 50% | < 50% | – | –
8 | CCCCCCCCCC[C@@H]1N[C@@H](CO)[C@H](O)[C@H]1O | 606 µM | 1.7 µM | < 50% | < 50% | – | –
9 | CCCCCCCCC[C@@H]1N[C@@H](CO)[C@H](O)[C@H]1O | 171 µM | 1.4 µM | < 50% | < 50% | – | –

Second part, the compound after the results:

Row | IC50 [1] | IC50 [2] | inhibition (Rattus norvegicus) | inhibition [3] | inhibition [4] | inhibition [5] | SMILES
10 | 4.7 µM | 0.032 µM | < 50% | < 50% | – | – | CCCC[C@@H]1N[C@@H](CO)[C@H](O)[C@H]1O
11 | 5.2 µM | 0.37 µM | < 50% | < 50% | – | – | OCC(CO)N[C@H]1C[C@](O)(CO)[C@@H](O)[C@H](O)[C@H]1O [VOGLIBOSE]
12 | – | 8.8 µM | < 50% | < 50% | < 50% | – | CCCC[C@H]1[C@H](O)[C@@H](O)[C@H](CO)N1CCCC
13 | – | – | < 50% | < 50% | < 50% | – | C[C@H]1O[C@H](O[C@H]2[C@H](O)[C@@H](O)[C@@H](O[C@H]3[C@H](O)[C@@H](O)C(O)O[C@@H]3CO)O[C@@H]2CO)[C@H](O)[C@@H](O)[C@@H]1N[C@H]1C=C(CO)[C@@H](O)[C@H](O)[C@H]1O (some centres not stated)
14 | 11 µM | 0.11 µM | < 50% | < 50% | – | – | CCCCCC[C@@H]1N[C@@H](CO)[C@H](O)[C@H]1O
15 | 18 µM | 0.19 µM | < 50% | < 50% | – | – | CCCCC[C@@H]1N[C@@H](CO)[C@H](O)[C@H]1O
16 | 75 µM | 0.45 µM | < 50% | < 50% | – | – | CCCCCCCC[C@@H]1N[C@@H](CO)[C@H](O)[C@H]1O
